Measured values published in ChEMBL document CHEMBL1133290, “Quantitative structure-intestinal permeability relationship of benzamidine analogue thrombin inhibitor” (2000).

Species on record: Rattus norvegicus
Test: Everted sac permeability (ESA) of rat small intestine, after addition of thrombin inhibitor
Assay type: functional

Going from CC(=O)N1CCN(C(=O)C(Cc2cccc(C(=N)N)c2)NS(=O)(=O)NCC(C)(c2ccccc2)c2ccccc2)CC1 (stereo unspecified) to CC(=O)N1CCN(C(=O)C(Cc2cccc(C(=N)N)c2)NS(=O)(=O)NCC(c2ccccc2)c2ccccc2)CC1 (stereo unspecified), the “Log ESA” value rises from -1.456 to -1.092.

CC(=O)N1CCN(C(=O)C(Cc2cccc(C(=N)N)c2)NS(=O)(=O)NCC2CCCCO2)CC1 (stereo unspecified) and CC(=O)N1CCN(C(=O)C(Cc2cccc(C(=N)N)c2)NS(=O)(=O)NCCOC2CCCCC2)CC1 (stereo unspecified) are the same in “Log ESA” value: -0.708 for the first, -0.708 for the second.

CC(=O)N1CCN(C(=O)C(Cc2cccc(C(=N)N)c2)NS(=O)(=O)NCCc2ccc3ccccc3c2)CC1 (stereo unspecified) and CC(=O)N1CCN(C(=O)C(Cc2cccc(C(=N)N)c2)NS(=O)(=O)NCc2ccc3ccccc3c2)CC1 (stereo unspecified) are within 0.2 log units of each other in “Log ESA” value: -1.032 for the first, -0.932 for the second.

COc1cccc(CNS(=O)(=O)NC(Cc2cccc(C(=N)N)c2)C(=O)N2Cc3ccccc3C2C(=O)O)c1OC (stereo unspecified) and COc1cccc(CNS(=O)(=O)NC(Cc2cccc(C(=N)N)c2)C(=O)N2CCC(C)CC2C(=O)O)c1OC (stereo unspecified) are within 0.2 log units of each other in “Log ESA” value: -0.879 for the first, -1 for the second.

First: CC(=O)N1CCN(C(=O)C(Cc2cccc(C(=N)N)c2)NS(=O)(=O)NCc2c[nH]c3ccccc23)CC1 (stereo unspecified)
Second: CC(=O)N1CCN(C(=O)C(Cc2cccc(C(=N)N)c2)NS(=O)(=O)NCc2ccccc2O)CC1 (stereo unspecified)
The “Log ESA” value of the first is lower: -0.914 for the first, -0.514 for the second.

CC(=O)N1CCN(C(=O)C(Cc2cccc(C(=N)N)c2)NS(=O)(=O)NCCCc2ccccc2C(=O)N2CCCC2)CC1 (stereo unspecified) and CC(=O)N1CCN(C(=O)C(Cc2cccc(C(=N)N)c2)NS(=O)(=O)NCCc2cccc3ccccc23)CC1 (stereo unspecified) are within 0.2 log units of each other in “Log ESA” value: -1.027 for the first, -1.114 for the second.

COc1cccc(CNS(=O)(=O)NC(Cc2cccc(C(=N)N)c2)C(=O)N2CCN(C(C)=O)CC2)c1O (stereo unspecified) and COc1ccccc1CNS(=O)(=O)NC(Cc1cccc(C(=N)N)c1)C(=O)N1CCN(C(C)=O)CC1 (stereo unspecified) are within 0.2 log units of each other in “Log ESA” value: -0.833 for the first, -0.815 for the second.

COc1cc(CNS(=O)(=O)NC(Cc2cccc(C(=N)N)c2)C(=O)N2CCN(C(C)=O)CC2)ccc1[N+](=O)[O-] (stereo unspecified) and COc1ccc(CNS(=O)(=O)NC(Cc2cccc(C(=N)N)c2)C(=O)N2CCN(C(C)=O)CC2)cc1OC (stereo unspecified) are within 0.2 log units of each other in “Log ESA” value: -0.559 for the first, -0.633 for the second.

CC(CNS(=O)(=O)NC(Cc1cccc(C(=N)N)c1)C(=O)N1CCCC(C(=O)O)C1)c1ccccc1 (stereo in doubt; 9) and N=C(N)c1cccc(CC(NS(=O)(=O)NCc2cccc3ccccc23)C(=O)N2CCCC(C(=O)O)C2)c1 (stereo in doubt; 12) are within 0.2 log units of each other in “Log ESA” value: -0.762 for the first, -0.893 for the second.

CC(=O)N1CCN(C(=O)C(Cc2cccc(C(=N)N)c2)NS(=O)(=O)NCc2c(F)c(F)c(F)c(F)c2F)CC1 (stereo unspecified) and CC(=O)N1CCN(C(=O)C(Cc2cccc(C(=N)N)c2)NS(=O)(=O)NCc2cc(C)c(C)c(C)c2)CC1 (stereo unspecified) are within 0.2 log units of each other in “Log ESA” value: -0.65 for the first, -0.818 for the second.

CC(=O)N1CCN(C(=O)C(Cc2cccc(C(=N)N)c2)NS(=O)(=O)NCc2ccc(-c3ccccc3)cc2)CC1 (stereo unspecified) and CC(=O)N1CCN(C(=O)C(Cc2cccc(C(=N)N)c2)NS(=O)(=O)NCc2ccc(CCc3ccccc3)cc2)CC1 (stereo unspecified) are within 0.2 log units of each other in “Log ESA” value: -1.174 for the first, -1.252 for the second.

COc1cccc(CNS(=O)(=O)NC(Cc2cccc(C(=N)N)c2)C(=O)N2CCN(CCO)CC2)c1OC (stereo unspecified) and CNC1CCN(C(=O)C(Cc2cccc(C(=N)N)c2)NS(=O)(=O)NCc2cccc(OC)c2OC)CC1 (stereo unspecified) are within 0.2 log units of each other in “Log ESA” value: -0.796 for the first, -0.686 for the second.

CC(=O)N1CCN(C(=O)C(Cc2cccc(C(=N)N)c2)NS(=O)(=O)NCc2ccccc2)CC1 (stereo unspecified) and CC(=O)N1CCN(C(=O)C(Cc2cccc(C(=N)N)c2)NS(=O)(=O)NCC(C)c2ccccc2)CC1 (stereo unspecified) are within 0.2 log units of each other in “Log ESA” value: -0.81 for the first, -0.889 for the second.

CC(=O)N1CCN(C(=O)C(Cc2cccc(C(=N)N)c2)NS(=O)(=O)NCC2CNc3ccccc3C2)CC1 (stereo unspecified) and CC(=O)N1CCN(C(=O)C(Cc2cccc(C(=N)N)c2)NS(=O)(=O)NCC2COc3ccccc3O2)CC1 (stereo unspecified) are within 0.2 log units of each other in “Log ESA” value: -0.674 for the first, -0.726 for the second.

CC(=O)N1CCN(C(=O)C(Cc2cccc(C(=N)N)c2)NS(=O)(=O)NCCc2ccc3c(c2)OCO3)CC1 (stereo unspecified) and CC(=O)N1CCN(C(=O)C(Cc2cccc(C(=N)N)c2)NS(=O)(=O)NCCc2ccc3c(c2)OCCO3)CC1 (stereo unspecified) are within 0.2 log units of each other in “Log ESA” value: -0.636 for the first, -0.654 for the second.

CC(=O)N1CCN(C(=O)C(Cc2cccc(C(=N)N)c2)NS(=O)(=O)NCCc2cccc3ncccc23)CC1 (stereo unspecified) and CC(=O)N1CCN(C(=O)C(Cc2cccc(C(=N)N)c2)NS(=O)(=O)NCCc2nccc3ccccc23)CC1 (stereo unspecified) are within 0.2 log units of each other in “Log ESA” value: -0.686 for the first, -0.635 for the second.

CC(=O)N1CCN(C(=O)C(Cc2cccc(C(=N)N)c2)NS(=O)(=O)NCCc2cccc([N+](=O)[O-])c2)CC1 (stereo unspecified) and CC(=O)N1CCN(C(=O)C(Cc2cccc(C(=N)N)c2)NS(=O)(=O)NCCc2cccc(N)c2)CC1 (stereo unspecified) are within 0.2 log units of each other in “Log ESA” value: -0.688 for the first, -0.75 for the second.

Going from CC(=O)N1CCN(C(=O)C(Cc2cccc(C(=N)N)c2)NS(=O)(=O)NCc2cccc(Oc3ccccc3)c2)CC1 (stereo unspecified) to COc1cccc(CNS(=O)(=O)NC(Cc2cccc(C(=N)N)c2)C(=O)N2CCN(C(C)=O)CC2)c1 (stereo unspecified), the “Log ESA” value rises from -1.149 to -0.804.

First: CC(=O)N1CCN(C(=O)C(Cc2cccc(C(=N)N)c2)NS(=O)(=O)NCc2cc(Br)cc3ccccc23)CC1 (stereo unspecified)
Second: CC(=O)N1CCN(C(=O)C(Cc2cccc(C(=N)N)c2)NS(=O)(=O)NCc2cccc3ccccc23)CC1 (stereo unspecified)
The “Log ESA” value of the first is lower: -1.367 for the first, -0.842 for the second.

CC(CNS(=O)(=O)NC(Cc1cccc(C(=N)N)c1)C(=O)N1CCCC(C(=O)O)C1)c1ccccc1 (stereo in doubt; 11) and N=C(N)c1cccc(CC(NS(=O)(=O)NCc2cccc3ccccc23)C(=O)N2CCCC(C(=O)O)C2)c1 (stereo in doubt; 10) are within 0.2 log units of each other in “Log ESA” value: -0.759 for the first, -0.752 for the second.

CC(=O)N1CCN(C(=O)C(Cc2cccc(C(=N)N)c2)NS(=O)(=O)NCc2ccc(CO)cc2)CC1 (stereo unspecified) and CCOc1ccccc1CNS(=O)(=O)NC(Cc1cccc(C(=N)N)c1)C(=O)N1CCN(C(C)=O)CC1 (stereo unspecified) are within 0.2 log units of each other in “Log ESA” value: -0.836 for the first, -0.876 for the second.

Going from CC(=O)N1CCN(C(=O)C(Cc2cccc(C(=N)N)c2)NS(=O)(=O)NCc2ccccc2-c2ccccc2)CC1 (stereo in doubt; 20) to CC(=O)N1CCN(C(=O)C(Cc2cccc(C(=N)N)c2)NS(=O)(=O)NCc2cccc3cc(O)ccc23)CC1 (stereo unspecified), the “Log ESA” value rises from -0.987 to -0.59.

First: COc1ccc(CNS(=O)(=O)NC(Cc2cccc(C(=N)N)c2)C(=O)N2CCN(C(C)=O)CC2)c(OC)c1 (stereo unspecified)
Second: COc1ccc2c(CNS(=O)(=O)NC(Cc3cccc(C(=N)N)c3)C(=O)N3CCN(C(C)=O)CC3)cccc2c1 (stereo unspecified)
The “Log ESA” value of the first is higher: -0.602 for the first, -0.86 for the second.

Compared with CC(=O)N1CCN(C(=O)C(Cc2cccc(C(=N)N)c2)NS(=O)(=O)NCc2ccccc2-c2ccccc2)CC1 (stereo in doubt; 5), CC(=O)N1CCN(C(=O)C(Cc2cccc(C(=N)N)c2)NS(=O)(=O)NCc2ccc(Cl)cc2[N+](=O)[O-])CC1 (stereo unspecified) is higher in “Log ESA” value: -1.071 for the first, -0.67 for the second.

Going from CC(=O)N1CCN(C(=O)C(Cc2cccc(C(=N)N)c2)NS(=O)(=O)NCCc2cc3c(cc2[N+](=O)[O-])OCO3)CC1 (stereo unspecified) to CCOc1c(CNS(=O)(=O)NC(Cc2cccc(C(=N)N)c2)C(=O)N2CCN(C(C)=O)CC2)sc2ccccc12 (stereo unspecified), the “Log ESA” value falls from -0.564 to -0.983.

For CC(=O)N1CCN(C(=O)C(Cc2cccc(C(=N)N)c2)NS(=O)(=O)NCC2CCCN2Cc2ccccc2)CC1 (stereo unspecified), the “Log ESA” value was -0.963.
